Experimental data: patent US20220041681A1 (MEDIMMUNE LIMITED, priority 2016, published 2022)
pEC50: −log10 of the molar value. “And” between values parts separate entries of the source, which are not always exact repeats. Equal values may be shown once. Values belong to the compound of their own block, whether it stands above or below them. Numbered stars: 1 amine (or outer) side, 2 acyl side, 3 side chain; on linkers, the order of the positions; unused ones are H or OH. Side chains are listed from the residue outwards. Peptide text beside a SMILES is read from it. * marks the point of attachment. γGlu = O=C(O)[C@H](CCC(=O)[*:2])N[*:1]; Palmitoyl = CCCCCCCCCCCCCCCC(=O)*

Columns and labels:
Mouse GlucR = target: T1, Mouse GlucR (Mus musculus, UniProt Q61606); experiment: cAMP assay in presence of serum albumin (assay 2), 3.2% mouse serum albumin; format: cell-based; details: relative potencies vs native ligands
T1 construct: expressed in transfected cells
T1 sequence (Q61606 27-485): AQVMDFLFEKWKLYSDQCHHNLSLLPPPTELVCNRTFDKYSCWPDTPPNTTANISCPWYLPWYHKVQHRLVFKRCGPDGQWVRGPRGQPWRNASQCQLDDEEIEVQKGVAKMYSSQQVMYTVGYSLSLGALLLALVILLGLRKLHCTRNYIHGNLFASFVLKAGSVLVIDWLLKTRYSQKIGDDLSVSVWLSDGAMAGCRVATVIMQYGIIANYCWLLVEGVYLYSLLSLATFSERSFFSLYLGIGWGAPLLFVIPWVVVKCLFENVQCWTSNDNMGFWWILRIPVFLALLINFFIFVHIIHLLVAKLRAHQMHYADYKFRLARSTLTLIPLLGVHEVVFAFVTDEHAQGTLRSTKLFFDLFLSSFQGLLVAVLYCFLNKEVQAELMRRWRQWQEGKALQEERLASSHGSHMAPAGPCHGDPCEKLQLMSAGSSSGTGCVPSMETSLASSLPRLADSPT
Experimental: (§1) CHO cells with stable recombinant expression of the human, mouse or rat GlucR or GLP-t receptor were cultured in DMEM 10% FBS and geneticin (100 μg/mil). Cryopreserved cell stocks were prepared in 1× cell freezing medium-DMSO serum free (Sigma Aldrich) at 2×10^7/vial and stored at […]. […] Peptides were serially diluted in DMSO and then diluted 100 fold into DMEM containing serum albumin at stated final concentration. […] Cells were added to the assay plates and incubated for 30 min at room temperature. Following incubation the assay was stopped and cAMP levels measured using the HTRF® dynamic d2 cAMP assay kit available from CisBio Bioassays, as per the manufacturer's guidelines. Plates were read on Perkin Elmer ENVISION® fluorescence plate readers. Human and rat serum albumin were purchased from Sigma Aldrich and mouse serum albumin from Equitech Bio Ltd.

Human GlucR [1] = target: T2, Human GlucR (Homo sapiens, UniProt P47871); experiment: cAMP assay in presence of serum albumin (assay 2), 4.4% human serum albumin; format: cell-based; details: relative potency GlucR / relative potency GLP1R vs native ligands
T2 construct: expressed in transfected cells
T2 sequence (P47871 26-477): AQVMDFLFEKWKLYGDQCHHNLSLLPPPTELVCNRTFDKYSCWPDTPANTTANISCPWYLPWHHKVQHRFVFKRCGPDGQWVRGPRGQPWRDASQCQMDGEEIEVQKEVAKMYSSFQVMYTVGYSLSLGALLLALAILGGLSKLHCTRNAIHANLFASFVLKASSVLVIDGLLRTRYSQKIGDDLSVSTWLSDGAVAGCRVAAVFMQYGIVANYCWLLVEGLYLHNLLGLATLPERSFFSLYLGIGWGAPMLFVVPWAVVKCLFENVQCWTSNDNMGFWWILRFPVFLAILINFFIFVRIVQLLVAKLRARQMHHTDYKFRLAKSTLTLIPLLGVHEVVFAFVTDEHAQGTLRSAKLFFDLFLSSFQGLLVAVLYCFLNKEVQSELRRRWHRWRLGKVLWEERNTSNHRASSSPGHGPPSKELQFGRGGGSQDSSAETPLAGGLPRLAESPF
Experimental: as §1

Human GLP1R = Human GLP1R (Homo sapiens, UniProt P43220); experiment: cAMP activity assay (assay 1) in assay medium; format: cell-based; details: Table 4, additional peptides, read-out: hGLP1R EC50
Human GLP1R, sequence (P43220 24-463): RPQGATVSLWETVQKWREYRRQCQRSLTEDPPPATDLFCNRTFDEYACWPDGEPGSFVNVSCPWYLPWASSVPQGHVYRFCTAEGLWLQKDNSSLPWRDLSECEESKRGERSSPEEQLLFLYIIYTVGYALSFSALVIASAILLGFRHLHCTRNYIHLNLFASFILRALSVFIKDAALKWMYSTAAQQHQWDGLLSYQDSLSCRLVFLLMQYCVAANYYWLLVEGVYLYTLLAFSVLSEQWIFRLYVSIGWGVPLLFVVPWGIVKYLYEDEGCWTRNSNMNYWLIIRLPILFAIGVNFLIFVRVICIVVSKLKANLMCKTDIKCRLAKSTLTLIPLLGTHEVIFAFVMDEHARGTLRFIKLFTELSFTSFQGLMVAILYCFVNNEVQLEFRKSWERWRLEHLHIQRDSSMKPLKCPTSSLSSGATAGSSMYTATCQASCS

Human GlucR [2] = target: T2, Human GlucR; experiment: cAMP activity assay (assay 1) in assay medium; format: cell-based; details: Table 4, additional peptides, read-out: hGlucR EC50
Human GIPr = target: T3, Human GIPr (Homo sapiens, UniProt P48546); experiment: cAMP activity assay (assay 1) in assay medium; format: cell-based; details: Table 4, additional peptides, read-out: hGIPR EC50
T3 sequence (P48546 22-466): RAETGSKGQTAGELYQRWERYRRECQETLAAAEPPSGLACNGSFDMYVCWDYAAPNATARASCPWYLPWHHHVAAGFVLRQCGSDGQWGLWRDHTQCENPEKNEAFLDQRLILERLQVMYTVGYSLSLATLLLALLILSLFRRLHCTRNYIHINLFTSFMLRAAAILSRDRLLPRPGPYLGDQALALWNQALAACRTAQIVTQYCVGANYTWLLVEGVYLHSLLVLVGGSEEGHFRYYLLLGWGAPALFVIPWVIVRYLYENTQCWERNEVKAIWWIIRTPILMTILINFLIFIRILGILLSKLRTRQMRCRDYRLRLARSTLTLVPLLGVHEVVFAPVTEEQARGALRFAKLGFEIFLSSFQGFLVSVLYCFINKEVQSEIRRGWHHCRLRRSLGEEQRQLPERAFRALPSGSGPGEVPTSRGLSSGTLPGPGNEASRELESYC

[3] = frozen blank plasma from mouse; details: 37° C., up to 48 hours
[4] = frozen blank plasma from rat; details: 37° C., up to 48 hours

Compound: CCCCCCCCCCCCCCCC(=O)N[C@@H](CCC(=O)NCCCC[C@H](NC(=O)[C@H](CO)NC(=O)[C@H](CC(=O)O)NC(=O)[C@H](CC(C)C)NC(=O)[C@H](Cc1ccc(O)cc1)NC(=O)[C@H](CCCCN)NC(=O)[C@H](CO)NC(=O)[C@H](Cc1ccc(O)cc1)NC(=O)[C@H](CC(=O)O)NC(=O)[C@H](CO)NC(=O)[C@@H](NC(=O)[C@H](Cc1ccccc1)NC(=O)[C@@H](NC(=O)CNC(=O)[C@H](CCC(N)=O)NC(=O)CNC(=O)[C@@H](N)Cc1c[nH]cn1)[C@@H](C)O)[C@@H](C)O)C(=O)N[C@@H](CCCNC(=N)N)C(=O)N[C@@H](C)C(=O)N[C@@H](CCC(N)=O)C(=O)N[C@@H](CC(=O)O)C(=O)N[C@@H](Cc1ccccc1)C(=O)N[C@H](C(=O)N[C@@H](CCC(N)=O)C(=O)N[C@@H](Cc1c[nH]c2ccccc12)C(=O)N[C@@H](CC(C)C)C(=O)N[C@H](C(=O)N[C@@H](C)C(=O)NCC(=O)NCC(N)=O)C(C)C)C(C)C)C(=O)O [Peptide G380]
Mouse GlucR/GLP1R Ratio (Mouse GlucR): 0.006
Human GlucR/GLP1R Ratio (Human GlucR [1]): 0.013

Compound: CCCCCCCCCCCCCCCC(=O)N[C@@H](CCC(=O)NCCCC[C@H](NC(=O)[C@H](CCCCN)NC(=O)[C@H](CO)NC(=O)[C@H](Cc1ccc(O)cc1)NC(=O)[C@H](CC(=O)O)NC(=O)[C@H](CO)NC(=O)[C@@H](NC(=O)[C@H](Cc1ccccc1)NC(=O)[C@@H](NC(=O)CNC(=O)[C@H](CCC(N)=O)NC(=O)C(C)(C)NC(=O)[C@@H](N)Cc1c[nH]cn1)[C@@H](C)O)[C@@H](C)O)C(=O)N[C@@H](CC(C)C)C(=O)N[C@@H](CC(=O)O)C(=O)N[C@@H](CO)C(=O)N[C@@H](CCC(=O)O)C(=O)N[C@@H](CCCNC(=N)N)C(=O)N[C@@H](C)C(=O)N[C@@H](CCCNC(=N)N)C(=O)N[C@@H](CC(=O)O)C(=O)N[C@@H](Cc1ccccc1)C(=O)N[C@H](C(=O)N[C@@H](C)C(=O)N[C@@H](Cc1c[nH]c2ccccc12)C(=O)N[C@@H](CC(C)C)C(=O)N[C@H](C(=O)N[C@@H](C)C(=O)NCC(=O)NCC(N)=O)C(C)C)C(C)C)C(=O)O [g87 ?]
pEC50 (Human GLP1R): 10.53
pEC50 (Human GlucR [2]): 9.89

Compound: CCCCCCCCCCCCCCCC(=O)N[C@@H](CCC(=O)NCCCC[C@H](NC(=O)[C@H](Cc1ccc(O)cc1)NC(=O)[C@H](CCCCN)NC(=O)[C@H](CO)NC(=O)[C@H](Cc1ccc(O)cc1)NC(=O)[C@H](CC(=O)O)NC(=O)[C@H](CO)NC(=O)[C@@H](NC(=O)[C@H](Cc1ccccc1)NC(=O)[C@@H](NC(=O)CNC(=O)[C@H](CCC(N)=O)NC(=O)[C@H](CO)NC(=O)[C@@H](N)Cc1c[nH]cn1)[C@@H](C)O)[C@@H](C)O)C(=O)N[C@@H](CC(=O)O)C(=O)N[C@@H](CO)C(=O)N[C@@H](CCCNC(=N)N)C(=O)N[C@@H](CCCNC(=N)N)C(=O)N[C@@H](C)C(=O)N[C@@H](CCC(N)=O)C(=O)N[C@@H](CC(=O)O)C(=O)N[C@@H](Cc1ccccc1)C(=O)N[C@H](C(=O)N[C@@H](CCC(N)=O)C(=O)N[C@@H](Cc1c[nH]c2ccccc12)C(=O)N[C@@H](CC(C)C)C(=O)N[C@@H](CCC(=O)O)C(=O)N[C@@H](C)C(=O)NCC(=O)NCC(N)=O)C(C)C)C(=O)O [g601] (H-HSQGTFTSDYSKYK([γGlu-Palmitoyl])DSRRAQDFVQWLEAGG-NH2; N-terminus assumed)
pEC50 (Human GIPr): 10.13

Compound: CCCCCCCCCCCCCCCC(=O)N[C@@H](CCC(=O)NCCCC[C@H](NC(=O)[C@H](CO)NC(=O)[C@H](CC(=O)O)NC(=O)[C@H](CC(C)C)NC(=O)[C@H](Cc1ccc(O)cc1)NC(=O)[C@H](CCCCN)NC(=O)[C@H](CO)NC(=O)[C@H](Cc1ccc(O)cc1)NC(=O)[C@H](CC(=O)O)NC(=O)[C@H](CO)NC(=O)[C@@H](NC(=O)[C@H](Cc1ccccc1)NC(=O)[C@@H](NC(=O)CNC(=O)[C@H](CCC(N)=O)NC(=O)CNC(=O)[C@@H](N)Cc1c[nH]cn1)[C@@H](C)O)[C@@H](C)O)C(=O)N[C@@H](CCCNC(=N)N)C(=O)N[C@@H](C)C(=O)N[C@@H](CCCNC(=N)N)C(=O)N[C@@H](CC(=O)O)C(=O)N[C@@H](Cc1ccccc1)C(=O)N[C@H](C(=O)N[C@@H](CCC(=O)O)C(=O)N[C@@H](Cc1c[nH]c2ccccc12)C(=O)N[C@@H](CC(C)C)C(=O)N[C@H](C(=O)N[C@@H](C)C(=O)NCC(=O)NCC(N)=O)C(C)C)C(C)C)C(=O)O [g660] (H-HGQGTFTSDYSKYLDSK([γGlu-Palmitoyl])RARDFVEWLVAGG-NH2; N-terminus assumed)
pEC50 (Human GIPr): 8.48

Compound: HSQGTFTSDXSEYLDSERARDFVAWLEAGG-amide X10 = K(gE-palm)
fragment found [3]: DPP cleaved product, minor
fragment found [4]: DPP cleaved product, minor

Now from value to compound, other results behind:

pEC50 (Human GLP1R): 10.58
pEC50 (Human GlucR [2]): 10.99
Compound: CC(C)C[C@H](NC(=O)[C@H](Cc1ccc(O)cc1)NC(=O)[C@H](CCCCN)NC(=O)[C@H](CO)NC(=O)[C@H](Cc1ccc(O)cc1)NC(=O)[C@H](CC(=O)O)NC(=O)[C@H](CO)NC(=O)[C@@H](NC(=O)[C@H](Cc1ccccc1)NC(=O)[C@@H](NC(=O)CNC(=O)[C@H](CCC(N)=O)NC(=O)[C@H](CO)NC(=O)[C@@H](N)Cc1c[nH]cn1)[C@@H](C)O)[C@@H](C)O)C(=O)N[C@@H](CC(=O)O)C(=O)N[C@@H](CO)C(=O)N[C@@H](CCCNC(=N)N)C(=O)N[C@@H](CCCNC(=N)N)C(=O)N[C@@H](C)C(=O)N[C@@H](CCC(N)=O)C(=O)N[C@@H](CC(=O)O)C(=O)N[C@@H](Cc1ccccc1)C(=O)N[C@H](C(=O)N[C@@H](CCC(N)=O)C(=O)N[C@@H](Cc1c[nH]c2ccccc12)C(=O)N[C@@H](CC(C)C)C(=O)N[C@H](C(=O)N[C@@H](C)C(=O)NCC(=O)NCC(=O)NCC(=O)NCC(=O)NCC(=O)NCC(=O)N[C@@H](CCCCN)C(N)=O)C(C)C)C(C)C [g32 ?]

fragment found [4]: DPP IV-cleavage product, 3% at 24 h
Compound: HSQGTFTSDXSRYLDSRSARDFVAWLEAGG-amide X10 = K(gE-palm)

fragment found [4]: DPP IV-cleavage product, 2% at 24 h
Compound: HSQGTFTSDYSKXLDSERARDFVAWLVAGG-amide X13 = K(gE-palm)
fragment found [3]: DPP IV-cleavage product, 14% at 24 h and +1 DPP cleaved product, 5% at 24 h
